Data reported in patent publication US20080275093A1, “Diuretic Compounds Comprising Heterocyclic Nitric Oxide Donor Groups, Compositions and Methods of Use” (NitroMed, Inc., priority 2004, published 2008).

First: Cc1c(COC(=O)c2cc(S(N)(=O)=O)c(Cl)cc2N)no[n+]1[O-] [Example 3, Benzoic acid, 2-amino-5-(aminosulfonyl)-4-chloro-, (4-methyl-5-oxido-1,2,5-oxadiazol-3-yl)methyl ester]
Second: Cc1c(COC(=O)c2cc(S(N)(=O)=O)c(Cl)cc2NCc2ccco2)no[n+]1[O-] [Example 1, Benzoic acid, 5-(aminosulfonyl)-4-chloro-2-[(2-furanylmethyl)amino]-, (4-methyl-5-oxido-1,2,5-oxadiazol-3-yl)methyl ester]
The melting point of the first is lower: 169 to 172 °C for the first, 182 to 183 °C for the second.

`Cc1c(COC(=O)COC(=O)c2cc(S(N)(=O)=O)c(Cl)cc2NCc2ccco2)no[n+]1[O-]` [Example 2, Benzoic acid, 5-(aminosulfonyl)-4-chloro-2-[(2-furanylmethyl)amino]-, 2-[(4-methyl-5-oxido-1,2,5-oxadiazol-3-yl)methoxy]-2-oxoethyl ester] showed a melting point of 112 to 115 °C.
